Values of other authors in patent publication US20090291104A1 (Florida Atlantic University, priority 2005, published 2009).

Tested on: K+ channels
Details: cited from earlier work

N--DPCYEVCLQHTGNV-KACEEACQ (NDPCYEVCLQHTGNVKACEEACQ; Opisthacanthus madagascarienses) [OmTx3]
rank as K+ channel blocker within the Om-toxin set: best blocker of the Om-toxin set
